Structures can show the parent of a compound that is named as a salt.
Target: human LPA1 receptor (Homo sapiens (Human), UniProt Q92633)
Assay: Beta-arrestin recruitment assay to determine IC50 values for human LPAR1
Format: cell-based
Details: antagonist mode, Tango EDG2-bla U2OS cells, LPA 18:1 500 nM final
Outline: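 Tango EDG2-bla U2OS cells: LPA-driven beta-arrestin/TEV protease recruitment releases Gal4-VP16, inducing beta-lactamase reporter read with live-cell substrate. Cells seeded 20 h at 37 °C beforehand. IC50 is antagonist concentration inhibiting 50% of maximal response.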

human LPA1 receptor, sequence (Q92633 whole entry): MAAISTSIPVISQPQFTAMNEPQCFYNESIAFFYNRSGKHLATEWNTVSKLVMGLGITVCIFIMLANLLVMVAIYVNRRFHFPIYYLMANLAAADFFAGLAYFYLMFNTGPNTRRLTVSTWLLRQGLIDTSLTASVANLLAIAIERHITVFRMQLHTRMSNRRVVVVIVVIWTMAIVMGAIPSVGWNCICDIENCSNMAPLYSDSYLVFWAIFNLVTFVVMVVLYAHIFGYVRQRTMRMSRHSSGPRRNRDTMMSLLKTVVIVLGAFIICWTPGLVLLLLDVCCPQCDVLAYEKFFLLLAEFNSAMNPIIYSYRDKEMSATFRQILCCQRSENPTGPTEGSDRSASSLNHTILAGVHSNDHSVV

| SMILES | IC50 [nM] |
| --- | --- |
| Cc1ccc(NC(=O)C2(c3ccccc3C(C)C)CN(C(=O)CN(C)S(N)(=O)=O)C2)c(OC(F)F)n1 [Ex 12-8, N-(2-(difluoromethoxy)-6-methylpyridin-3-yl)-3-(2-isopropylphenyl)-1-(N-methyl-N-sulfamoylglycyl)azetidine-3-carboxamide] | 10 |
| COC(=O)COC(=O)N1CC(C(=O)Nc2ncc(C)cc2OC(F)F)(c2ccccc2C(C)C)C1 [Ex 83-1, 2-methoxy-2-oxoethyl 3-((3-(difluoromethoxy)-5-methylpyridin-2-yl)carbamoyl)-3-(2-isopropylphenyl)azetidine-1-carboxylate] | 74 |
| Cc1ccc(NC(=O)C2(c3ccccc3C(C)C)CN(C(=O)CC3(C(=O)O)CCOC3)C2)c(OC(F)F)n1 (centres unmarked) [Ex 12-123, 3-(2-(3-((2-(difluoromethoxy)-6-methylpyridin-3-yl)carbamoyl)-3-(2-isopropylphenyl)azetidin-1-yl)-2-oxoethyl)tetrahydrofuran-3-carboxylic acid] | 41 |
| Cc1ccc(NC(=O)C2(c3ccccc3C(C)C)CN(C(=O)N[C@H](C)C(=O)O)C2)c(OC(F)F)n1 [Ex 17-24, (3-((2-(difluoromethoxy)-6-methylpyridin-3-yl)carbamoyl)-3-(2-isopropylphenyl)azetidine-1-carbonyl)-D-alanine] | 86 |
| Cc1ccc(NC(=O)C2(c3ccccc3C(C)C)CN(CCNCC(=O)O)C2)c(OC(F)F)n1 [Ex 11-80, (2-(3-((2-(difluoromethoxy)-6-methylpyridin-3-yl)carbamoyl)-3-(2-isopropylphenyl)azetidin-1-yl)ethyl)glycine] | 297 |
| Cc1ccc(NC(=O)C2(c3ccccc3C(C)C)CN(CC(N)=O)C2)c(OC(F)F)n1 [Ex 11-15, 1-(2-amino-2-oxoethyl)-N-(2-(difluoromethoxy)-6-methylpyridin-3-yl)-3-(2-isopropylphenyl)azetidine-3-carboxamide] | 22 |
| Cc1ccc(NC(=O)C2(c3ccccc3C(C)C)CN(CCN(C)C)C2)c(OC(F)F)n1 [Ex 11-78, N-(2-(difluoromethoxy)-6-methylpyridin-3-yl)-1-(2-(dimethylamino)ethyl)-3-(2-isopropylphenyl)azetidine-3-carboxamide] | 191 |
| COC(=O)[C@@H](NC(=O)N1CC(C(=O)Nc2ccc(C)nc2OC(F)F)(c2ccccc2C(C)C)C1)C(C)C [Ex 17-6, methyl (3-((2-(difluoromethoxy)-6-methylpyridin-3-yl)carbamoyl)-3-(2-isopropylphenyl)azetidine-1-carbonyl)-L-valinate] | 9 |
| CC(C)c1ccccc1C1(C(=O)Nc2cccnc2OC(F)F)CNC1 [Ex 7, N-(2-(difluoromethoxy)pyridin-3-yl)-3-(2-isopropylphenyl)azetidine-3-carboxamide hydrochloride] | 413 |
| Cc1ccc(NC(=O)C2(c3ccccc3C(C)C)CCN(C(=O)OCC(=O)O)CC2)c(OC(F)F)n1 [Ex 14-2, 2-((4-((2-(difluoromethoxy)-6-methylpyridin-3-yl)carbamoyl)-4-(2-isopropylphenyl)piperidine-1-carbonyl)oxy)acetic acid] | 4.3 |
| Cc1ccc(NC(=O)C2(c3ccccc3C3CCOCC3)CN(C(=O)CC(C)(C)C(=O)O)C2)c(OC(F)F)n1 [Ex 31-6, 4-(3-((2-(difluoromethoxy)-6-methylpyridin-3-yl)carbamoyl)-3-(2-(tetrahydro-2H-pyran-4-yl)phenyl)azetidin-1-yl)-2,2-dimethyl-4-oxobutanoic acid] | 185 |
| Cc1ccc(NC(=O)C2(c3ccccc3C(C)C)CN(C3=NC(=O)CO3)C2)c(OC(F)F)n1 [Ex 19, N-(2-(difluoromethoxy)-6-methylpyridin-3-yl)-3-(2-isopropylphenyl)-1-(4-oxo-4,5-dihydrooxazol-2-yl)azetidine-3-carboxamide] | 4 |
| Cc1ccc(NC(=O)C2(c3ccccc3C(C)C)CN(C(=O)C(C)(C)CC(=O)O)C2)c(OC(F)F)n1 [Ex 12-91, 4-(3-((2-(difluoromethoxy)-6-methylpyridin-3-yl)carbamoyl)-3-(2-isopropylphenyl)azetidin-1-yl)-3,3-dimethyl-4-oxobutanoic acid] | 5 |
| COCCNS(=O)(=O)N1CC(C(=O)Nc2cccnc2OC)(c2ccccc2)C1 [Ex 86, 1-(N-(2-methoxyethyl)sulfamoyl)-N-(2-methoxypyridin-3-yl)-3-phenylazetidine-3-carboxamide, reference compound] | > 10000 |
| Cc1ccc(NC(=O)C2(c3ccccc3C(C)C)CN(C(=O)Cn3cnnc3)C2)c(OC(F)F)n1 [Ex 12-23, 1-(2-(4H-1,2,4-triazol-4-yl)acetyl)-N-(2-(difluoromethoxy)-6-methylpyridin-3-yl)-3-(2-isopropylphenyl)azetidine-3-carboxamide] | 21 |
| CCOC(=O)C[C@@H](CC(=O)N1CC(C(=O)Nc2ccc(C)nc2OC(F)F)(c2ccccc2C(C)C)C1)OC(C)=O [Ex 12-104, ethyl (R)-3-acetoxy-5-(3-((2-(difluoromethoxy)-6-methylpyridin-3-yl)carbamoyl)-3-(2-isopropylphenyl)azetidin-1-yl)-5-oxopentanoate] | 41 |

| SMILES | IC50 [nM] |
| --- | --- |
| COc1cc(Br)cnc1NC(=O)C1(c2ccccc2C(C)C)CNC1 [Ex 71, N-(5-bromo-3-methoxypyridin-2-yl)-3-(2-isopropylphenyl)azetidine-3-carboxamide] | 564 |
| O=C(Nc1ncc(Cl)cc1OC(F)F)C1(c2ccccc2C2CCCC2)CNC1 [Ex 76, N-(5-chloro-3-(difluoromethoxy)pyridin-2-yl)-3-(2-cyclopentylphenyl)azetidine-3-carboxamide] | 19 |
| Cc1ccc(NC(=O)C2(c3ccccc3C(C)C)CN(C(=O)CC(C)C(=O)O)C2)c(OC(F)F)n1 (centres unmarked) [Ex 12-78, 4-(3-((2-(difluoromethoxy)-6-methylpyridin-3-yl)carbamoyl)-3-(2-isopropylphenyl)azetidin-1-yl)-2-methyl-4-oxobutanoic acid] | 27 |
| CCOC(=O)C1(NC(=O)N2CC(C(=O)Nc3ccc(C)nc3OC(F)F)(c3ccccc3C(C)C)C2)CC1 [Ex 17-10, ethyl 1-(3-((2-(difluoromethoxy)-6-methylpyridin-3-yl)carbamoyl)-3-(2-isopropylphenyl)azetidine-1-carboxamido)cyclopropane-1-carboxylate] | 13 |
| Cc1ccc(NC(=O)C2(c3cc(F)ccc3C(C)C)CNC2)c(OC(F)F)n1 [Ex 37, N-(2-(difluoromethoxy)-6-methylpyridin-3-yl)-3-(5-fluoro-2-isopropylphenyl)azetidine-3-carboxamide] | 112 |
| Cc1ccc(NC(=O)C2(c3ccccc3C(C)C)CN(Cc3cccn3CC(=O)O)C2)c(OC(F)F)n1 [Ex 11-42, 2-(2-((3-((2-(difluoromethoxy)-6-methylpyridin-3-yl)carbamoyl)-3-(2-isopropylphenyl)azetidin-1-yl)methyl)-1H-pyrrol-1-yl)acetic acid] | 43 |
| CC(C)c1ccccc1C1(C(=O)Nc2cccnc2OC(F)F)CN(S(=O)(=O)CCC(=O)OCc2ccccc2)C1 [Ex 13-9, benzyl 3-((3-((2-(difluoromethoxy)pyridin-3-yl)carbamoyl)-3-(2-isopropylphenyl)azetidin-1-yl)sulfonyl)propanoate] | 37 |
| Cc1ccc(NC(=O)C2(c3ccccc3C(C)C)CN(CCO)C2)c(OC(F)F)n1 [Ex 11-2, N-(2-(difluoromethoxy)-6-methylpyridin-3-yl)-1-(2-hydroxyethyl)-3-(2-isopropylphenyl)azetidine-3-carboxamide] | 5 |
| Cc1ccc(NC(=O)C2(c3ccccc3C3CC3)CNC2)c(OC(F)F)n1 [Ex 23, 3-(2-cyclopropylphenyl)-N-(2-(difluoromethoxy)-6-methylpyridin-3-yl)azetidine-3-carboxamide] | 664 |
| Cc1ccc(NC(=O)C2(c3ccccc3C(C)C)CN(C3COC3)C2)c(OC(F)F)n1 [Ex 11-20, N-(2-(difluoromethoxy)-6-methylpyridin-3-yl)-3-(2-isopropylphenyl)-1-(oxetan-3-yl)azetidine-3-carboxamide] | 6 |
| Cc1ccc(NC(=O)C2(c3ccccc3C(C)C)CN(CCCC3(C(=O)O)CC3)C2)c(OC(F)F)n1 [Ex 11-71, 1-(3-(3-((2-(difluoromethoxy)-6-methylpyridin-3-yl)carbamoyl)-3-(2-isopropylphenyl)azetidin-1-yl)propyl)cyclopropane-1-carboxylic acid] | 7 |
| COC(=O)CCC(=O)N1CCC(C(=O)Nc2ccc(C)nc2OC(F)F)(c2ccccc2C(C)C)CC1 [Ex 12-72, methyl 4-(4-((2-(difluoromethoxy)-6-methylpyridin-3-yl)carbamoyl)-4-(2-isopropylphenyl)piperidin-1-yl)-4-oxobutanoate] | 4 |
| Cc1ccc(NC(=O)C2(c3ccccc3C3CCCC3)CN(C(=O)CC(C)(C)C(=O)O)C2)c(OC(F)F)n1 [Ex 31-3, 4-(3-(2-cyclopentylphenyl)-3-((2-(difluoromethoxy)-6-methylpyridin-3-yl)carbamoyl)azetidin-1-yl)-2,2-dimethyl-4-oxobutanoic acid] | 5 |
| Cc1ccc(NC(=O)C2(c3ccccc3C(C)C)CN(C(=O)OCC(=O)O)C2)c(OC(F)F)n1 [Ex 14-1, 2-((3-((2-(difluoromethoxy)-6-methylpyridin-3-yl)carbamoyl)-3-(2-isopropylphenyl)azetidine-1-carbonyl)oxy)acetic acid] | 12 |
| Cc1ccc(NC(=O)C2(c3ccccc3C(C)C)CN(C(=O)NC(C)(C)CC(=O)O)C2)c(OC(F)F)n1 [Ex 17-2, 3-(3-((2-(difluoromethoxy)-6-methylpyridin-3-yl)carbamoyl)-3-(2-isopropylphenyl)azetidine-1-carboxamido)-3-methylbutanoic acid] | 12 |
| CC(C)c1ccccc1C1(C(=O)Nc2cccnc2OC(F)F)CN(c2nc(C(=O)O)co2)C1 [Ex 18-30, 2-(3-((2-(difluoromethoxy)pyridin-3-yl)carbamoyl)-3-(2-isopropylphenyl)azetidin-1-yl)oxazole-4-carboxylic acid] | 41 |

— patent US12344597B2, “Alkoxy-substituted pyridinyl derivatives as LPA1 receptor antagonists and their use in the treatment of fibrosis” (IDORSIA PHARMACEUTICALS LTD, priority 2018, dated 2025)
